Laboratory results reported in US7645740B2, “Peptide sequence found in Laminin 5 for treating skin impairments” (Laboratoires d'Anjou Centre National de la Recherche …, priority 2004, dated 2010).

Key:
Format in all cases: cell-based, human
[1] = test system: NHK-old (keratinocytes from elderly individuals); test: Cell adhesion of NHK-old to immobilized peptide; conditions: 0 to 5 micrograms per well, 1 hour 37° C.
Protocol: Dose-dependent cell adhesion of NHK-10 years versus NHK-71 years (A) and NHK-11 years versus NHK-60 years (B) peptides TALRIRATYHEY. The peptides were immobilized in 96-well plates at the concentrations given on the abscissa. 3.5×10^4 (A) cells and 4.3×10^4 (B) cells were deposited in each well and plates were incubated at 37° C. for 1 hour. After washing, attached cells were fixed and cell adhesion was measured as described in the methodology section (C). Cells were observed by phase contrast microscopy then photographed. Bar=50 μm.
In order to obtain keratinocytes originating from biopsies taken from young and old individuals and taken from the same anatomical site, the inventors conducted a study of facial skin biopsies. The area of the face situated behind the ears was chosen in order to study only intrinsic aging and to overcome the effects of photo-induced aging. Surgery waste from cosmetic surgery (face lifts) in older individuals and surgery waste from detached ears in young children was collected. It is essential to use biopsies collected on the same day as surgery was performed in order to quickly place the epidermal keratinocytes in culture. Cells from biopsies on elderly individuals (60, 63 and 71 years) and young individuals (8, 10 and 11 years) were used for this study. The keratinocytes were obtained by means of the technique described by Boyce and Ham, 1985. […]

NHKs = test: Effect of the peptide in soluble form on keratinocyte behaviour in culture
Protocol: NHKs were seeded in 12-well plates at a rate of 5,000 cells per well. After 24 hours, the culture medium was removed and replaced with new medium containing 5%, 2.5%, 1.25%, 0.6% and 0.3% peptide (B—F). A peptide-free control was carried. The plates were then placed in the incubator at 37° C. for 48 hours. Observations were made with an Axiovert 40 Zeiss microscope. Bar=50 μm
Observation at higher magnification of the cell colonies described in FIG. 6 using an Axiovert 40 Zeiss microscope equipped with a PlasDisc interferential block. Bar=50 μm
Keratinocytes were seeded in 12-well plates (Costar) at a rate of 5,000 cells per well in KBM-2 medium. After 24 hours in culture at 37° C. with 5% CO2, the culture medium was removed and replaced with KBM-2 medium containing the peptide quantities given in the figures (a peptide-free control was also carried out). After 24 hours in culture, the same quantity of peptide was added to the culture medium and the experiment was stopped after a further 24 hours in culture. Microscope analyse was carried out without preliminary fixation using an Axiovert 40 Zeiss microscope coupled to a Coolsnap camera (Roper Scientific, Evry, France).

NHK-old = test: Cell adhesion of NHK-old to peptide co-immobilized with laminin 5
Protocol: The peptide (variable quantities indicated) and laminin 5 (fixed quantity 0.2 mg) were co-immobilized in 96-well plates. 3×104 NHK-8 years and 3×104 NHK-63 years were deposited in each well and plates were incubated at 37° C. for 1 hour. After washing, attached cells were fixed and cell adhesion was measured as described in the methodology section. Cell adhesion in the presence of the peptide is given as a percentage of cell adhesion obtained with laminin 5 alone.
The effect of peptide TALRIRATYGEY (SEQ ID NO. 1) on adhesion to LN5 was verified with NHK-old (FIG. 16). NHK-young ([…]) was tested in parallel and 30,000 cells/well were used in both cases (NHK-old is always limiting as it is obtained in lower amounts). In general, the results obtained in the course of this experiment are less marked than those in the experiment presented in FIG. 14 since (1) the number of cells is lower (30,000 instead of 50,000) and (2) the peptide range tested is also smaller. […] This effect, less marked than the effect found with NHK-young, is probably linked to the decreased adhesion with age of NHK-old to peptide TALRIRATYGEY (SEQ ID NO.1) (FIG. 6).

## TALRIRATYGEY (Human laminin 5) [Peptide 1]
[1]
  cell adhesion to immobilized peptide: triggered dose-dependent cell adhesion
NHKs; NHKs cultured with the peptide, higher magnification (FIG. 12)
  cell morphology vs control cells: no morphological difference
NHKs; NHKs, 5%, 2.5%, 1.25%, 0.6% and 0.3% peptide in medium, 48 hours, vs peptide-free control
  effect of peptide added to culture medium on colony formation: faster formation of cohesive colonies
NHK-old; NHK-63 years, 30,000 cells/well, laminin 5 fixed quantity 0.2 mg
  effect on adhesion of NHK-old to LN5 (co-immobilized): potentializing effect
NHK-old; NHK-old vs NHK-young, 30,000 cells/well
  effect on NHK-old adhesion to LN5 compared with NHK-young: less marked
